Measurements taken from patent US10131652B2, “Pyrimidinyloxy benzene derivatives as herbicides” (E. I. DU PONT DE NEMOURS AND COMPANY, priority 2014, dated 2018).

Assays:
Type in all cases: in vivo
[1] = test system: barnyardgrass (Echinochloa crus-galli); assay: Test B pre-/postemergence plant response
Outline: (§1)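 Ratings reflect visual injury versus untreated controls, from 0 for no effect to 100 for complete control, assessed roughly 10 days after treatment. Formulation: non-phytotoxic solvent mix with surfactant; pre- and postemergence sprays on plants grown in loam soil and sand.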

[2] = test system: corn (Zea mays); assay: Test B pre-/postemergence plant response; settings: 0 to 100 scale, 0 no effect, 100 complete control
Outline: as §1

[3] = test system: giant foxtail (Setaria faberii); assay: Test B pre-/postemergence plant response
Outline: as §1

[4] = test system: pigweed (Amaranthus retroflexus); assay: Test B pre-/postemergence plant response
Outline: as §1

[5] = test system: wheat (Triticum aestivum); assay: Test B pre-/postemergence plant response; settings: 0 to 100 scale, 0 no effect, 100 complete control
Outline: as §1

[6] = test system: barnyardgrass (Echinochloa crus-galli); assay: Test C flooded paddy test plant response; settings: Flood, 250 g ai/ha; scale of 0 to 100 where 0 is no effect and 100 is complete control; 13 to 15 days
Outline: (§2)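 Flooded-pot format, 3 cm water over soil maintained for the test duration; test compounds dispensed into the water at the 2-leaf stage. Greenhouse holding 13 to 15 days. Plants evaluated visually relative to untreated controls, 0 meaning no effect and 100 complete control.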

[7] = test system: ducksalad (Heteranthera limosa); assay: Test C flooded paddy test plant response; settings: Flood, 250 g ai/ha; scale of 0 to 100 where 0 is no effect and 100 is complete control; 13 to 15 days
Outline: as §2

[8] = test system: rice (Oryza sativa); assay: Test C flooded paddy test plant response; settings: Flood, 250 g ai/ha; scale of 0 to 100 where 0 is no effect and 100 is complete control; 13 to 15 days
Outline: as §2

[9] = test system: small-flower umbrella sedge (Cyperus difformis); assay: Test C flooded paddy test plant response; settings: Flood, 250 g ai/ha; scale of 0 to 100 where 0 is no effect and 100 is complete control; 13 to 15 days
Outline: as §2

[10] = test system: blackgrass (Alopecurus myosuroides); assay: Test D pre-/postemergence plant response
Outline: (§3)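 Pre-/post-emergence greenhouse test. Pre: seeded loam+sand, sprayed same day. Post: 1–4 leaf plants (2–18 cm), peat/vermiculite mix. Formulation: non-phytotoxic solvent + surfactant. Scored visually d13–15, 0–100 vs control.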

[11] = test system: galium (catchweed bedstraw, Galium aparine); assay: Test D pre-/postemergence plant response
Outline: as §3

[12] = test system: johnsongrass (Sorghum halepense); assay: Test D pre-/postemergence plant response
Outline: as §3

[13] = test system: lambsquarters (Chenopodium album); assay: Test D pre-/postemergence plant response
Outline: as §3

[14] = test system: large (Lg) crabgrass (Digitaria sanguinalis); assay: Test D pre-/postemergence plant response
Outline: as §3

[15] = test system: velvetleaf (Abutilon theophrasti); assay: Test D pre-/postemergence plant response
Outline: as §3

[16] = test system: winter wheat (Triticum aestivum); assay: Test D pre-/postemergence plant response
Outline: as §3

[17] = 31 g ai/ha, Postemergence, 0 to 100 scale, 0 no effect, 100 complete control
[18] = 31 g ai/ha, Preemergence, 0 to 100 scale where 0 is no effect and 100 is complete control
[19] = 125 g ai/ha, postemergence, 0 to 100 scale, 0 no effect, 100 complete control
[20] = Preemergence, 125 g ai/ha, 0 to 100 scale where 0 is no effect and 100 is complete control
[21] = Postemergence, 16 g ai/ha, scale 0 to 100 (0 no effect, 100 complete control)
[22] = Postemergence, 31 g ai/ha, scale 0 to 100 (0 no effect, 100 complete control)
[23] = Postemergence, 62 g ai/ha, scale 0 to 100, 0 no effect, 100 complete control
[24] = Postemergence, 125 g ai/ha, scale 0 to 100, 0 no effect, 100 complete control
[25] = Preemergence, 16 g ai/ha, scale 0 to 100 (0 no effect, 100 complete control)
[26] = Preemergence, 31 g ai/ha, scale 0 to 100 (0 no effect, 100 complete control)
[27] = Preemergence, 62 g ai/ha, scale 0 to 100 (0 no effect, 100 complete control)

FC(Cl)c1cc(-c2ccccc2Oc2ncc(Cl)cn2)no1 (stereo not shown) [Compound 116]
Plant response rating, Barnyardgrass [1, 17]: 10 | Plant response rating, Barnyardgrass [1, 18]: 0 | Plant response rating, Barnyardgrass [1, 19]: 30 | Plant response rating, Barnyardgrass [1, 20]: 30 | Plant response rating, Corn ([2]; 31 g ai/ha, Postemergence): 20 | Plant response rating, Corn ([2]; 125 g ai/ha, postemergence): 40 | Plant response rating, Foxtail, Giant [3, 17]: 20 | Plant response rating, Foxtail, Giant [3, 18]: 40 | Plant response rating, Foxtail, Giant [3, 19]: 90 | Plant response rating, Foxtail, Giant [3, 20]: 90 | Plant response rating, Pigweed [4, 17]: 100 | Plant response rating, Pigweed [4, 18]: 70 | Plant response rating, Pigweed [4, 19]: 100 | Plant response rating, Wheat ([5]; 31 g ai/ha, Postemergence): 10 | Plant response rating, Wheat ([5]; 125 g ai/ha, postemergence): 20 | Barnyardgrass plant response rating [6]: 0 | Ducksalad plant response rating [7]: 95 | Rice plant response rating [8]: 30 | Sedge, Umbrella plant response rating [9]: 90 | Blackgrass plant response rating [10, 21]: 0 | Blackgrass plant response rating [10, 22]: 5 | Plant response rating, Blackgrass [10, 23]: 5 | Plant response rating, Blackgrass [10, 24]: 35 | Galium plant response rating [11, 21]: 60 | Galium plant response rating [11, 22]: 60 | Plant response rating, Galium [11, 23]: 70 | Plant response rating, Galium [11, 24]: 90 | Johnsongrass plant response rating [12, 21]: 10 | Johnsongrass plant response rating [12, 22]: 20 | Plant response rating, Johnsongrass [12, 23]: 20 | Lambsquarters plant response rating [13, 21]: 40 | Lambsquarters plant response rating [13, 22]: 60 | Plant response rating, Lambsquarters [13, 23]: 80 | Plant response rating, Lambsquarters [13, 24]: 100 | Crabgrass, Large plant response rating [14, 21]: 5 | Crabgrass, Large plant response rating [14, 22]: 5 | Plant response rating, Crabgrass, Large [14, 23]: 25 | Plant response rating, Crabgrass, Large [14, 24]: 40 | Velvetleaf plant response rating [15, 21]: 55 | Velvetleaf plant response rating [15, 22]: 65 | Plant response rating, Velvetleaf [15, 23]: 70 | Plant response rating, Velvetleaf [15, 24]: 75 | Wheat plant response rating [16, 21]: 70 | Wheat plant response rating [16, 22]: 0 | Plant response rating, Wheat [16, 23]: 5 | Plant response rating, Wheat [16, 24]: 5

Fc1cccc(Oc2ncc(Br)cn2)c1-c1cc(C(F)F)on1 [Compound 118]
Plant response rating, Barnyardgrass [1, 17]: 70 | Plant response rating, Barnyardgrass [1, 18]: 70 | Plant response rating, Barnyardgrass [1, 19]: 100 | Plant response rating, Barnyardgrass [1, 20]: 100 | Plant response rating, Corn ([2]; 31 g ai/ha, Postemergence): 50 | Plant response rating, Corn ([2]; 125 g ai/ha, postemergence): 100 | Plant response rating, Foxtail, Giant [3, 17]: 90 | Plant response rating, Foxtail, Giant [3, 18]: 100 | Plant response rating, Foxtail, Giant [3, 19]: 100 | Plant response rating, Foxtail, Giant [3, 20]: 100 | Plant response rating, Pigweed [4, 17]: 100 | Plant response rating, Pigweed [4, 18]: 100 | Plant response rating, Pigweed [4, 19]: 100 | Plant response rating, Wheat ([5]; 31 g ai/ha, Postemergence): 20 | Plant response rating, Wheat ([5]; 125 g ai/ha, postemergence): 60 | Barnyardgrass plant response rating [6]: 50 | Ducksalad plant response rating [7]: 100 | Rice plant response rating [8]: 45 | Sedge, Umbrella plant response rating [9]: 100 | Blackgrass plant response rating [10, 21]: 5 | Blackgrass plant response rating [10, 22]: 10 | Plant response rating, Blackgrass [10, 23]: 15 | Plant response rating, Blackgrass [10, 24]: 35 | Plant response rating (scale 0 to 100), Blackgrass ([10]; Preemergence, 125 g ai/ha): 90 | Plant response rating, Blackgrass [10, 25]: 0 | Plant response rating, Blackgrass [10, 26]: 10 | Plant response rating, Blackgrass [10, 27]: 60 | Galium plant response rating [11, 21]: 85 | Galium plant response rating [11, 22]: 90 | Plant response rating, Galium [11, 23]: 90 | Plant response rating, Galium [11, 24]: 98 | Plant response rating (scale 0 to 100), Galium ([11]; Preemergence, 125 g ai/ha): 95 | Plant response rating, Galium [11, 25]: 60 | Plant response rating, Galium [11, 26]: 98 | Plant response rating, Galium [11, 27]: 95 | Johnsongrass plant response rating [12, 21]: 5 | Johnsongrass plant response rating [12, 22]: 5 | Plant response rating, Johnsongrass [12, 23]: 10 | Plant response rating, Johnsongrass [12, 24]: 45 | Plant response rating (scale 0 to 100), Johnsongrass ([12]; Preemergence, 125 g ai/ha): 100 | Plant response rating, Johnsongrass [12, 25]: 10 | Plant response rating, Johnsongrass [12, 26]: 70 | Plant response rating, Johnsongrass [12, 27]: 85 | Lambsquarters plant response rating [13, 21]: 75 | Lambsquarters plant response rating [13, 22]: 85 | Plant response rating, Lambsquarters [13, 23]: 90 | Plant response rating, Lambsquarters [13, 24]: 95 | Plant response rating (scale 0 to 100), Lambsquarters ([13]; Preemergence, 125 g ai/ha): 98 | Plant response rating, Lambsquarters [13, 25]: 90 | Plant response rating, Lambsquarters [13, 26]: 90 | Plant response rating, Lambsquarters [13, 27]: 95 | Crabgrass, Large plant response rating [14, 21]: 10 | Crabgrass, Large plant response rating [14, 22]: 10 | Plant response rating, Crabgrass, Large [14, 23]: 15 | Plant response rating, Crabgrass, Large [14, 24]: 20 | Plant response rating (scale 0 to 100), Crabgrass, Large ([14]; Preemergence, 125 g ai/ha): 100 | Plant response rating, Crabgrass, Large [14, 25]: 100 | Plant response rating, Crabgrass, Large [14, 26]: 100 | Plant response rating, Crabgrass, Large [14, 27]: 100 | Velvetleaf plant response rating [15, 21]: 65 | Velvetleaf plant response rating [15, 22]: 75 | Plant response rating, Velvetleaf [15, 23]: 70 | Plant response rating, Velvetleaf [15, 24]: 85 | Plant response rating (scale 0 to 100), Velvetleaf ([15]; Preemergence, 125 g ai/ha): 100 | Plant response rating, Velvetleaf [15, 25]: 80 | Plant response rating, Velvetleaf [15, 26]: 70 | Plant response rating, Velvetleaf [15, 27]: 100 | Wheat plant response rating [16, 21]: 0 | Wheat plant response rating [16, 22]: 0 | Plant response rating, Wheat [16, 23]: 0 | Plant response rating, Wheat [16, 24]: 5 | Plant response rating (scale 0 to 100), Wheat ([16]; Preemergence, 125 g ai/ha): 5 | Plant response rating, Wheat [16, 25]: 0 | Plant response rating, Wheat [16, 26]: 0 | Plant response rating, Wheat [16, 27]: 0
